Marks after values point to notes of the source that are not given here.
Assays:
[1] = system: TA100; assay: Ames test, strain TA100; type: cell-based
Protocol: (§1) To assess the mutagenic effects of 5 compounds (IMM-004; IMM-065; IMM-127; IMM-128; IMM-313), the Ames test was performed in 4 strains (TA97; TA98; TA100; TA102). The experiment was conducted with compounds at 4 concentration levels (0.5, 5, 50 and 500 μg/dish). […]

[2] = system: TA98; assay: Ames test, strain TA98; type: cell-based
Protocol: as §1

[3] = system: isolated rat hearts subjected to ischemia-reperfusion (I/R); assay: Isolated heart subjected to ischemia/reperfusion injury (arrhythmia)
Protocol: Based on the pre-electrophysiological cell model screening, we have compared the inhibition ratios of the outward current by reverse-transportation of Na^+/Ca^2+ exchange, and further in vitro tests on isolated rat hearts subjected to ischemia-reperfusion (I/R) were conducted. Prolongation of ventricular arrhythmic, incidence rate of ventricular extrasystole, ventricular tachycardia/ventricular fibrillation (VT/VF) were recorded to evaluate the protective actions of drugs on myocardial injury.
On the basis of above screening results obtained from electrophysiological studies, and the result from comparative study on the research of the inhibitory effect of compounds on reverse mode Na^+/Ca^2+ exchange process, 7 effective compounds were subjected to in vitro study. Among which, IMM-313, IMM-004 and IMM-132 have structures containing chlorine; IMM-127, IMM-128 and IMM-129 have structures containing fluorine; and IMM-065 has a structure containing OH. The experiment performed in the isolated heart subjected to ischemia/reprefusion insult. Prolongation of ventricular arrhythmic, incidence of ventricular extrasystole, ventricular tachycardia/ventricular fibrillation (VT/VF) were recorded in order to evaluate the protective actions of drugs on myocardial injury.

[4] = target: T1, Na^+/Ca^2+ exchanger (Cavia porcellus, UniProt P48766); assay: Na^+/Ca^2+ exchange current (INa—Ca), whole-cell patch clamp, intracellular Na^+ overload cell model; type: cell-based, guinea pig
T1 construct: endogenous in cells; host or cells: freshly isolated guinea pig ventricular myocytes
Description: 1. Establishment of Assaying Method for Biphasical Current Detection in Na^+/Ca^2+ Exchange System
Since the reverse mode of Na^+/Ca^2+ exchange process is one of the main mechanisms involving in ischemia/reperfusion insult, it is of great importance to establish cell model represented reverse mode Na^+/Ca^2+ exchange process for the development of drugs against ischemic injury. Therefore, we successfully established cell model of reverse mode Na^+/Ca^2+ exchange system by intracellular Na^+ dialysis technique, and recorded Na^+/Ca^2+ exchange currents by patch clamp experiment.
Internal solution contained certain concentration of NaCl was filled to the microcatheter, and ion exchange process between the cellular and internal solutions was conducted after whole cell currents were recorded by patch clamp. Na^+ contained in the internal solution was dialyzed into the cell; result in the high intracellular Na^+ concentration. After that, the cell was champed at a holding potential of −40 mV, then depolarized to +60 mV and followed by a conversely declining ramp stimuli at a speed of 80 mV·s^−1 and 2 s conditioning pulse, then repolarized to −100 mV with a frequency of 0.05 Hz. Under the stimulation protocol, current from outward to the inward direction was recorded by perfusing modified biphasical Tyrode solution (in which the outward and inward currents can be recorded simultaneously) with the addition of 1 mmol·L^−1 of BaCl2 and 2 mmol·L^−1 of CsCl to block K^+ channels, 1 μmol·L^−1 of verapamil to block L-type Ca^2+ channels, and 20 μmol·L^−1 of ouabain to block Na^+/K^+ ATPase, and 20 mmol·L^−1 of TEA to block potassium channels. The recorded inward currents were presented in a linear manner owing to the blockade of other time-dependent currents. With the increase of intracellular Na^+ level and prolongation of time, the reverse mode of Na^+/Ca^2+ exchange process was activated. […] Under such experimental conditioning, the maximum reverse mode current was recorded 3 min after cell crushed. No significant “run-down” was observed within the record period of 8 minutes. The inward and outward current were inhibited by 5 mmol·L^−1 of Ni^2+ treatment, and the experiment result in two current-voltage curves in the absence or presence of Ni^2+. The Ni^2+ sensitive current, also called electrophysiological Na^+/Ca^2+ exchange current (INa·Ca), was the minus result of two current-voltage curves. The reverse mode potential of INa—Ca was about −20 mV
Male guinea pigs weighting 250˜280 g provided by the Animal Center of the Chinese Academy of Medical Sciences were hammered and sacrificed. The chest was opened and the heart was removed quickly. Fatty tissue and pericardium were removed in a Ca^2+-free solution at 4° C., and heart was sequentially mounted on a Langendorff apparatus. First, the heart was perfused conversely via the aorta for 6 min with Ca^2+-free solution in order to wash out residual blood, then the heart expands and the color of it turns to pink. Then the heart was perfused with Ca^2+-free solution containing 0.1 mg/ml of pronase E, 0.5 mg/ml defatted bovine serum albumin (BSA) and 150 μM Ca^2+ for 2˜3 min, until the heart expanded and became soft. The atrium was removed, and the digested heart was minced with scissors, stirred in a beaker at 37° C. for 5˜10 min. The supernatant was diluted with Ca^2+-free solution containing 0.5 mg/ml BSA and 1.8 mM Ca^2+. The supernatant was placed at room temperature (20˜24° C.) for 1 hr and then subjected to the experiment. During the whole perfusion period, pressure was kept at 70 cmH2O and the temperature of solution was kept at 37° C. with continuously gassed with 95% O2 and 5% CO2.
Rod-shaped cells with clear striations and intact membrane were used. […]

[5] = system: TA97; TA98; TA100; TA102; assay: Ames (mutagenesis) test, overall result in 4 strains; type: cell-based; conditions: 0.5, 5, 50 and 500 μg/dish
Protocol: as §1

[6] = system: TA102; assay: Ames test, strain TA102; type: cell-based
Protocol: as §1

[7] = system: TA97; assay: Ames test, strain TA97; type: cell-based
Protocol: as §1

[8] = system: arrhythmia caused by ischemia/reperfusion insults in anaesthetic rats; assay: Ischemia/reperfusion arrhythmia in anaesthetic rats, intravenous injection; type: in vivo, rat
Description: (1) Protective Effects of the Tested Compounds on Myocardial Insults in Rats after Intravenously Injection
Arrhythmic potency induced by myocardial insults was used to assess the potential protective effect of the compounds.

[9] = 10^−6 M, isolated heart ischemia/reperfusion
[10] = Example 1 table, myocardial cell
[11] = screening of 22 candidate compounds

## O=c1c2ccc(Cl)cc2[se]n1-c1ccncc1 [IMM-313, 6-chloro-2-(4-pyridyl)-1,2-benz-isoselenazol-3(2H)-one]
[1]; 0.5 μg/dish
  TA100 +S9: 99.33 ± 2.49
  TA100 −S9: 68.67 ± 17.33
[1]; 5 μg/dish
  TA100 +S9: 111.33 ± 7.71
  TA100 −S9: 45.67 ± 6.65
[1]; 50 μg/dish
  TA100 +S9: 106.00 ± 7.48
  TA100 −S9: 0
[1]; 500 μg/dish
  TA100 +S9: 0
  TA100 −S9: 16.5 ± 0.5
[2]; 0.5 μg/dish
  TA98 +S9: 49.33 ± 3.86
  TA98 −S9: 100.50 ± 3.50
[2]; 5 μg/dish
  TA98 +S9: 50.33 ± 5.79
  TA98 −S9: 86.50 ± 5.50
[2]; 50 μg/dish
  TA98 +S9: 47.33 ± 1.25
  TA98 −S9: 0
[2]; 500 μg/dish
  TA98 +S9: 0
  TA98 −S9: 87.67 ± 5.25
[3]; 10^−6M, isolated heart
  protective effects on myocardial insults: significant protective effects
[3]; [9]
  AAT: arrhythmic occurrence time, Time: 1.67 ± 0.70 min
  VF (ventricular fibrillation) Incidence rate (%): 30* %
  VPS (ventricular premature beats) Incidence rate (%): 20* %
  VT (ventricular tachycardia) Incidence rate (%): 30%
[4]; [10]
  Inhibitory rate of inward INa—Ca (%): 28%
  Inhibitory rate of outward INa—Ca (%): 50%
[4]; [11]
  Inhibitory rate of inward INa—Ca (%): 28%
  Inhibitory rate of outward INa—Ca (%): 50* %
[5]
  mutagenic effect (Ames test): No evidence for a mutagenic effect
[6]; 0.5 μg/dish
  TA102 +S9: 250.00 ± 10.00
  TA102 −S9: 215.33 ± 13.91
[6]; 5 μg/dish
  TA102 +S9: 220.00 ± 28.00
  TA102 −S9: 211.33 ± 18.35
[6]; 50 μg/dish
  TA102 +S9: 265.33 ± 15.43
  TA102 −S9: 0
[6]; 500 μg/dish
  TA102 +S9: 0
  TA102 −S9: 177.67 ± 23.33
[7]; 0.5 μg/dish
  TA97 +S9: 64.67 ± 8.65
  TA97 −S9: 47.33 ± 6.13
[7]; 5 μg/dish
  TA97 +S9: 70.33 ± 4.11
  TA97 −S9: 38.33 ± 13.09
[7]; 50 μg/dish
  TA97 +S9: 60.00 ± 7.12
  TA97 −S9: 0
[7]; 500 μg/dish
  TA97 +S9: 0
  TA97 −S9: 33.33 ± 13.59
[8]; 3 mg/Kg intravenous (femoral vein), rats
  incidence and duration of VT, VF, VE / ventricular arrhythmic: no significant effect
[8]; 3 mg/Kg intravenous, before ligation, 7/17 rats
  rats with heart rate irreversibly reduced within 5 min (died at last): 41.2%

From patent US20060135569A1, “Use of benzisoselenazolone compounds against ischemic myocardial damage” (priority 2002, published 2006)
